Reference: patent US6555692B1, “Preparation and use of bifunctional molecules having DNA sequence binding specificity” (California Institute of Technology, priority 1996, dated 2003)

Columns and labels:
[1] = system: 5′-AACCAAGTACTTGGTA-3′; assay: Association constants, recognition of 16 base pairs; assay type: binding; conditions: for Specificity 5′-AACCAACTAGTTGGTA: Table 8, center mismatch; for Specificity 5′-AACCAAGTACTTGCGA: Table 8, edge mismatch; for Ka 5′-AACCAAGTACTTGGTA: Table 8, match site
Text: Table 8 illustrates recognition of 16 Base-Pairs by ImPyPyPy-X-ImImPy-γ-PyPyPy-β-Dp.

[2] = system: 5′-TGTCAAAGACA-3′; assay: Recognition of 9-11 base pairs (Table 9); assay type: binding; conditions: 22° C. and pH 7.0
Text: (§1) Table 9 illustrates recognition of recognition of 9-11 base pairs by ImPyPy-X-ImPyPy-β-Dp.

[3] = system: 5′-TGTCAGACA-3′; assay: Recognition of 9-11 base pairs (Table 9); assay type: binding; conditions: 22° C. and pH 7.0
Text: as §1

[4] = system: 5′-TGTCAAGACA-3′; assay: Recognition of 9-11 base pairs (Table 9); assay type: binding; conditions: 22° C. and pH 7.0
Text: as §1

[5] = system: 5′-gcggtTGTCAacccg-3′; assay: Recognition of 9-11 base pairs (Table 9); assay type: binding; conditions: 22° C. and pH 7.0
Text: as §1

[6] = system: 5 to 10 base pair sites based on a 5′-TGACA-3′ core sequence; assay: Footprint titration of three- to eight-ring polyamide dimers (Table 2); assay type: binding; conditions: 22° C., pH 7.0; for association constant: mean of at least three footprint titrations
Text: To determine the effect of polyamide length on binding site size, binding affinity, and sequence specificity, a series of six polyamides containing three to eight rings was synthesized. (Kelly, et al. Proc. Natl. Acad. Sci. U.S.A. 93, 6981-6985 (1996).) The series is based on ImPyPy-Dp with pyrrolecarboxamide moieties added sequentially to the C-termini to afford ImPyPyPy-Dp, ImPyPyPyPy-Dp, ImPyPyPyPyPy-Dp, ImPyPyPyPyPyPy-Dp, and ImPyPyPyPyPyPyPy-Dp which are designed to bind 5 to 10 base pair sites, respectively as side-by-side antiparallel dimers. DNA binding sites are based on a 5′-TGACA-3′ core sequence and contain sequential A,T inserts in the center of the binding site that will be recognized by the additional pyrrole carboxamides.

[7] = system: 5′-TGTTA-3′; conditions: cited from earlier work

Compound	5′-TGTCAAAGACA-3′ [2]	5′-TGTCAGACA-3′ [3]	5′-TGTCAAGACA-3′ [4]	5′-gcggtTGTCAacccg-3′ [5]	also measured
CN(C)CCCNC(=O)CCNC(=O)c1cc(NC(=O)c2cc(NC(=O)c3cc(NC(=O)CCCNC(=O)c4cc(NC(=O)c5nc(NC(=O)c6nc(NC(=O)CCCCNC(=O)c7cc(NC(=O)c8cc(NC(=O)c9cc(NC(=O)c%10nccn%10C)cn9C)cn8C)cn7C)cn6C)cn5C)cn4C)cn3C)cn2C)cn1C [ImPyPyPy-C5-ImImPy-γ-PyPyPy-β-Dp]	–	–	–	–	Specificity 5′-AACCAACTAGTTGGTA [1]: >3; Specificity 5′-AACCAAGTACTTGCGA [1]: >3; Ka 5′-AACCAAGTACTTGGTA [1]: 7 × 10^8
CN(C)CCCNC(=O)CCNC(=O)c1cc(NC(=O)c2cc(NC(=O)c3nc(NC(=O)CCCCNC(=O)c4cc(NC(=O)c5cc(NC(=O)c6nccn6C)cn5C)cn4C)cn3C)cn2C)cn1C [ImPyPy-C5-ImPyPy-β-Dp]	1 × 10^9	2 × 10^8	1 × 10^9	1 × 10^9	–
CN(C)CCCNC(=O)CCNC(=O)c1cc(NC(=O)c2cc(NC(=O)c3nc(NC(=O)CCNC(=O)CCNC(=O)c4cc(NC(=O)c5cc(NC(=O)c6nccn6C)cn5C)cn4C)cn3C)cn2C)cn1C [ImPyPy-β-β-ImPyPy-β-Dp]	1 × 10^7	1 × 10^7	5 × 10^7	2 × 10^7	–
CN(C)CCCNC(=O)CCNC(=O)c1cc(NC(=O)c2cc(NC(=O)c3nc(NC(=O)CCCCCCCNC(=O)c4cc(NC(=O)c5cc(NC(=O)c6nccn6C)cn5C)cn4C)cn3C)cn2C)cn1C [ImPyPy-C8-ImPyPy-β-Dp]	1 × 10^7	1 × 10^7	3 × 10^7	1 × 10^7	–
ImPyPyPyPyPy-Dp	–	–	–	–	specificity (ratio of match site affinity to affinity of the single base pair mismatch site) [6]: 2.7-fold; association constant [6]: 5.3e+07 M⁻¹
CN(C)CCCNC(=O)CCNC(=O)c1cc(NC(=O)c2cc(NC(=O)c3cc(NC(=O)CCNC(=O)c4cc(NC(=O)c5cc(NC(=O)c6nccn6C)cn5C)cn4C)cn3C)cn2C)cn1C [ImPyPy-β-PyPyPy-β-Dp]	5 × 10^7	2 × 10^8	5 × 10^7	3 × 10^7	–
CN(C)CCCNC(=O)CCNC(=O)c1cc(NC(=O)c2cc(NC(=O)c3nc(NC(=O)CCNC(=O)c4cc(NC(=O)c5cc(NC(=O)c6nccn6C)cn5C)cn4C)cn3C)cn2C)cn1C [ImPyPy-β-ImPyPy-β-Dp]	1 × 10^9	2 × 10^8	2 × 10^8	1 × 10^9	–
CN(C)CCCNC(=O)CCNC(=O)c1cc(NC(=O)c2cc(NC(=O)c3cc(NC(=O)CCCNC(=O)c4cc(NC(=O)c5nc(NC(=O)c6nc(NC(=O)CCCCCNC(=O)c7cc(NC(=O)c8cc(NC(=O)c9cc(NC(=O)c%10nccn%10C)cn9C)cn8C)cn7C)cn6C)cn5C)cn4C)cn3C)cn2C)cn1C [ImPyPyPy-C6-ImImPy-γ-PyPyPy-β-Dp]	–	–	–	–	Specificity 5′-AACCAACTAGTTGGTA [1]: 1; Specificity 5′-AACCAAGTACTTGCGA [1]: 1; Ka 5′-AACCAAGTACTTGGTA [1]: 1 × 10^8
CN(C)CCCNC(=O)CCNC(=O)c1cc(NC(=O)c2cc(NC(=O)c3cc(NC(=O)CCCNC(=O)c4cc(NC(=O)c5nc(NC(=O)c6nc(NC(=O)CCNC(=O)CCNC(=O)c7cc(NC(=O)c8cc(NC(=O)c9cc(NC(=O)c%10nccn%10C)cn9C)cn8C)cn7C)cn6C)cn5C)cn4C)cn3C)cn2C)cn1C [ImPyPyPy-β-β-ImImPy-γ-PyPyPy-β-Dp]	–	–	–	–	Specificity 5′-AACCAACTAGTTGGTA [1]: 1; Specificity 5′-AACCAAGTACTTGCGA [1]: 1; Ka 5′-AACCAAGTACTTGGTA [1]: 3 × 10^8
CN(C)CCCNC(=O)CCNC(=O)c1cc(NC(=O)c2cc(NC(=O)c3nc(NC(=O)CCCCCCNC(=O)c4cc(NC(=O)c5cc(NC(=O)c6nccn6C)cn5C)cn4C)cn3C)cn2C)cn1C [ImPyPy-C7-ImPyPy-β-Dp]	3 × 10^7	2 × 10^7	1 × 10^8	7 × 10^7	–
ImPyPy-γ-PyPyPy-Dp	–	–	–	–	sequence-specificity versus single base pair mismatch sites [7]: 30 fold
CN(C)CCCNC(=O)c1cc(NC(=O)c2cc(NC(=O)c3cc(NC(=O)c4nccn4C)cn3C)cn2C)cn1C [ImPyPyPy-Dp]	–	–	–	–	specificity (ratio of match site affinity to affinity of the single base pair mismatch site) [6]: 5.3-fold; association constant [6]: 8.5e+06 M⁻¹
ImPyPyPyPyPyPyPy-Dp	–	–	–	–	specificity (ratio of match site affinity to affinity of the single base pair mismatch site) [6]: 1-fold; association constant [6]: <2e+07 M⁻¹
CN(C)CCCNC(=O)CCNC(=O)c1cc(NC(=O)c2cc(NC(=O)c3nc(NC(=O)CCNC(=O)CCNC(=O)CCNC(=O)c4cc(NC(=O)c5cc(NC(=O)c6nccn6C)cn5C)cn4C)cn3C)cn2C)cn1C [ImPyPy-β-β-β-ImPyPy-β-Dp]	7 × 10^7	1 × 10^7	1 × 10^7	1 × 10^7	–
CN(C)CCCNC(=O)CCNC(=O)c1cc(NC(=O)c2cc(NC(=O)c3nc(NC(=O)CCCCCNC(=O)c4cc(NC(=O)c5cc(NC(=O)c6nccn6C)cn5C)cn4C)cn3C)cn2C)cn1C [ImPyPy-C6-ImPyPy-β-Dp]	5 × 10^7	1 × 10^8	2 × 10^8	5 × 10^7	–
ImPyPyPyPy-Dp	–	–	–	–	specificity (ratio of match site affinity to affinity of the single base pair mismatch site) [6]: 5.7-fold; association constant [6]: 4.5e+07 M⁻¹
CN(C)CCCNC(=O)CCNC(=O)c1cc(NC(=O)c2cc(NC(=O)c3nc(NC(=O)CCCCCCCCCCNC(=O)c4cc(NC(=O)c5cc(NC(=O)c6nccn6C)cn5C)cn4C)cn3C)cn2C)cn1C [ImPyPy-C11-ImPyPy-β-Dp]	2 × 10^7	5 × 10^6	2 × 10^7	1 × 10^7	–
CN(C)CCCNC(=O)c1cc(NC(=O)c2cc(NC(=O)c3nccn3C)cn2C)cn1C [ImPyPy-Dp]	–	–	–	–	specificity (ratio of match site affinity to affinity of the single base pair mismatch site) [6]: 6.5-fold; association constant [6]: 130000 M⁻¹
CN(C)CCCNC(=O)c1cc(NC(=O)c2cc(NC(=O)c3cc(NC(=O)c4cc(NC(=O)c5cc(NC(=O)c6cc(NC(=O)c7nccn7C)cn6C)cn5C)cn4C)cn3C)cn2C)cn1C [ImPyPyPyPyPyPy-Dp]	–	–	–	–	specificity (ratio of match site affinity to affinity of the single base pair mismatch site) [6]: 2.8-fold; association constant [6]: 4.7e+07 M⁻¹
cyclo-(ImPyPy-γ-PyPyPy-γ-)	–	–	–	–	equilibrium association constant Ka ([7]; 5′-TGTTA-3′ target site, prior art): 2.9e+09 M⁻¹; increase in Ka relative to the corresponding hairpin polyamide ImPyPy-γ-PyPyPy ([7]; 5′-TGTTA-3′): 40 fold; sequence-specificity versus single base pair mismatch sites [7]: 2 fold
CN(C)CCCNC(=O)CCNC(=O)c1cc(NC(=O)c2cc(NC(=O)c3nc(NC(=O)CCCNC(=O)c4cc(NC(=O)c5cc(NC(=O)c6nccn6C)cn5C)cn4C)cn3C)cn2C)cn1C [ImPyPy-γ-ImPyPy-β-Dp]	1 × 10^8	5 × 10^7	1 × 10^8	2 × 10^8	–
CN(C)CCCNC(=O)CCNC(=O)c1cc(NC(=O)c2cc(NC(=O)c3nc(NC(=O)CCNC(=O)c4cc(NC(=O)CCNC(=O)c5cc(NC(=O)c6cc(NC(=O)c7nccn7C)cn6C)cn5C)cn4C)cn3C)cn2C)cn1C [ImPyPy-β-Py-β-ImPyPy-β-Dp]	1 × 10^9	3 × 10^8	2 × 10^8	–	Ka [5]: < 1e+08 M⁻¹
CN(C)CCCNC(=O)CCNC(=O)c1cc(NC(=O)c2cc(NC(=O)c3nc(NC(=O)CNC(=O)c4cc(NC(=O)c5cc(NC(=O)c6nccn6C)cn5C)cn4C)cn3C)cn2C)cn1C [ImPyPy-G-ImPyPy-β-Dp]	3 × 10^7	1 × 10^8	3 × 10^7	3 × 10^7	–
